Converted amounts (≈) assume the structure as drawn.
Legend:
[1] = Jacobsen and Wengel, Pestic. Sci., 1986, 17, 686-690; cited from earlier work
Botrytis cinerea = test: microbe, parasite or virus in culture; format: cell-based, Botrytis cinerea (grey mould)
Fusarium graminearum = test: microbe, parasite or virus in culture; format: cell-based
[2] = test system: Pseudocercosporella herpotrichoides; test: microbe, parasite or virus in culture; format: cell-based, Pseudocercosporella herpotrichoides (eyespot)
Pyricularia oryzae = test: microbe, parasite or virus in culture; format: cell-based
Rhizoctonia solani = test: microbe, parasite or virus in culture; format: cell-based
[3] = test system: Pseudocercosporella herpotrichoides; test: Further in vitro assay, W-type and R-type isolates of Pseudocercosporella herpotrichoides; format: cell-based
Aspergillus niger = test: microbe, parasite or virus in culture; format: cell-based
[4] = test system: Erysiphe graminis f.sp hordei; set-up: species or system Erysiphe graminis f.sp hordei (barley powdery mildew); settings: in vivo
Septoria tritici = test: microbe, parasite or virus in culture; format: cell-based, Septoria tritici (wheat leaf blotch)
Rhynchosporium secalis = format: cell-based, Rhynchosporium secalis (barley leaf blotch)
Ustilago maydis = test: microbe, parasite or virus in culture; format: cell-based, Ustilago maydis (maize smut)
Neurospora crassa = test: microbe, parasite or virus in culture; format: cell-based
Helminthosporium solani = test: Further in vitro assay, isolates of Helminthosporium solani; format: cell-based; settings: H. solani, Table 2(e)
Fusarium sulphureum = test: Further in vitro assay, isolates of Fusarium sulphureum; format: cell-based; settings: F. sulphureum, Table 2(f)
14 day old seedlings = test: Phytotoxic effects on sprayed 14 day old seedlings; format: in vivo, barley; settings: dosage levels below those currently used for triazole fungicides
[5] = read-out: % inhibition of growth in colony diameter
[6] = Rhizoctonia solani, read-out: % inhibition of growth in colony diameter
[7] = Aspergillus niger, read-out: % inhibition of growth in colony diameter

CC(C)c1cc2c(o1)C(=O)c1ccccc1C2=O [(A)]
fungicidal activity [1]: inactive

CCC1(CC)CC2=C(O1)C(=O)c1ccccc1C2=O [(B)]
fungicidal activity [1]: intermediate fungicidal activity

c1ccc2[nH]cnc2c1 [Benzimidazole]
Sensitivity (S/R) (Botrytis cinerea): R and S | Sensitivity (R) (Fusarium graminearum; isolate JF18): R | Sensitivity (R) [2]: R

COC(=O)Nc1nc2ccccc2[nH]1 [Carbendazim, reference compound]
inhibition at 1 µg/mL (Pyricularia oryzae; [5]): 14.7% | inhibition at 4 µg/mL (Pyricularia oryzae; [5]): 99.4% | inhibition at 1 µg/mL (Rhizoctonia solani; [6]): 3.3% | inhibition at 4 µg/mL (Rhizoctonia solani; [6]): 81.2% | Sensitivity to Carbendazim ([3]; R-type isolate (first line)): Sensitive | Sensitivity to Carbendazim ([3]; R-type isolate (second line)): Resistant | Sensitivity to Carbendazim ([3]; W-type isolate (first line)): Sensitive | Sensitivity to Carbendazim ([3]; W-type isolate (second line)): Resistant

CCCN(CCOc1c(Cl)cc(Cl)cc1Cl)C(=O)n1ccnc1 [Prochloraz, reference compound]
inhibition at 1 µg/mL (Aspergillus niger; Aspergillus niger, 1 mg/l, read-out: % inhibition of growth in colony diameter): 97.1%

CC(C)(C)C(O)C(Oc1ccc(Cl)cc1)n1cncn1 (stereo not drawn) [Triadimenol]
Sensitivity of isolate (S/R) [4]: S and R

CC1OC2=C(C(=O)C(=O)c3ccccc32)C1(C)C (stereo not drawn) [dunnione]
anti-fungal activity (in words) (Septoria tritici): active | level of activity compared with azole fungicides currently in use (Septoria tritici): similar, or better | MIC (Septoria tritici; Zymoseptoria tritici, read-out: Sensitivity MIC): 5 µg/mL (≈ 20.6 µM) | anti-fungal activity (in words) (Rhynchosporium secalis): active | level of activity compared with azole fungicides currently in use (Rhynchosporium secalis): similar, or better | anti-fungal activity (in words) (Ustilago maydis): active | level of activity compared with azole fungicides currently in use (Ustilago maydis): similar, or better | IC50 (Ustilago maydis; Mycosarcoma maydis, ATCC14826, read-out: ED50): 3 µg/mL (≈ 12.4 µM) | anti-fungal activity (in words) (Neurospora crassa): Significant activity | IC50 (Neurospora crassa; Neurospora crassa, read-out: ED50): 2 µg/mL (≈ 8.26 µM) | anti-fungal activity (in words) (Botrytis cinerea): some activity | IC50 (Botrytis cinerea; Botrytis cinerea, read-out: Sensitivity ED50): > 20 µg/mL | anti-fungal activity (in words) (Fusarium graminearum; Fusarium graminearum): some activity | IC50 (Fusarium graminearum; Fusarium graminearum, read-out: Sensitivity ED50): 20 µg/mL (≈ 82.6 µM) | IC50 ([2]; Oculimacula yallundae, read-out: Sensitivity ED50): 17 µg/mL (≈ 70.2 µM) | fungicidal activity (in words) (Aspergillus niger): active | inhibition at 4 µg/mL (Aspergillus niger; [7]): 30% | inhibition at 20 µg/mL (Aspergillus niger; [7]): 99% | inhibition at 100 µg/mL (Aspergillus niger; [7]): 100% | fungicidal activity (in words) (Pyricularia oryzae): active | inhibition at 4 µg/mL (Pyricularia oryzae; [5]): 75% | inhibition at 20 µg/mL (Pyricularia oryzae; [5]): 99% | inhibition at 100 µg/mL (Pyricularia oryzae; [5]): 100% | fungicidal activity (in words) (Rhizoctonia solani): active | inhibition at 4 µg/mL (Rhizoctonia solani; [6]): 37% | inhibition at 20 µg/mL (Rhizoctonia solani; [6]): 93% | inhibition at 100 µg/mL (Rhizoctonia solani; [6]): 100% | fungicidal activity (in words) ([3]; Pseudocercosporella herpotrichoides): inconsistent | cross-resistance with carbendazim ([3]; Table 2(d)): no evidence of cross-resistance | cross-resistance with thiabendazole (Helminthosporium solani): no evidence of cross-resistance | cross-resistance with thiabendazole (Fusarium sulphureum): no evidence of cross-resistance | fungicidal effect (in words) [4]: fungicidally effective | phytotoxic effects (14 day old seedlings): no noticeable phytotoxic effects
